Reference: patent US12257247B2 (Monte Rosa Therapeutics AG, priority 2023, dated 2025)
Like-named read-outs stand apart in the source and are kept apart here.

Molecular target: T1, VAV1 (Homo sapiens, UniProt P15498+Q96SW2)
T1 construct: A heterozygous VAV1 C-terminal HiBiT knock-in pool was generated at Monte Rosa Therapeutics from a clonal Jurkat cell; endogenous in cells; host or cells: Jurkat clone stably expressing LgBiT, homozygous GSPT1-G575N; heterozygous VAV1-HiBiT knock-in pool
Assay: VAV1 degradation activity, VAV1-HiBiT knock-in Jurkat luminescence assay (Example A, Table 1)
Format: cell-based
Conditions: VAV1-HiBiT knock-in Jurkat cells, luminescence read at 6 and 24 hours; for Dmax: Jurkat
Summary of the method: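 Luminescence was measured at 6 and 24 h after adding compound (10 μM stock) to VAV1-HiBiT knock-in Jurkat cells, which had been pre-incubated ~16 h at 37° C. in RPMI/10% FBS containing Endurazine. EC50 values came from control-normalised responses fitted to a 3-parameter logistic model with hillslope fixed at 1.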

[1] = read-out: VAV1 DC50 (nM), class

SMILES	Dmax (read-out: VAV1 Dmax %) [%]	Dmax (read-out: VAV1 Dmax %, class) [%]	DC50 (read-out: VAV1 DC50) [nM]	DC50 [1] [nM]
CN1CC(Cc2ccc(-c3cccc(C4CCC(=O)NC4=O)c3Cl)cc2)OC1=O (stereo not shown) [Compound 454, 3-(2-chloro-4′-((3-methyl-2-oxooxazolidin-5-yl)methyl)-[1,1′-biphenyl]-3-yl)piperidine-2,6-dione]	68.3	60 to 90	140	100 to 1000
O=C1CCC(c2cccc(-c3ccc(Cc4ccon4)cc3)c2Cl)C(=O)N1 (stereo not shown) [Compound 455, 3-(2-chloro-4′-(isoxazol-3-ylmethyl)-[1,1′-biphenyl]-3-yl)piperidine-2,6-dione]	95.5	> 90	15.2	≤ 100
O=C1CCC(c2cccc(-c3ccc(N4Cc5ccccc5C4=O)cc3)c2Cl)C(=O)N1 (stereo not shown) [Compound 456, 3-(2-chloro-4′-(1-oxoisoindolin-2-yl)-[1,1′-biphenyl]-3-yl)piperidine-2,6-dione]	61	60 to 90	1560	> 1000
O=C1CCC(c2cccc(-c3ccc(N4C(=O)CCC45CCC5)cc3)c2Cl)C(=O)N1 (stereo not shown) [Compound 457, 3-(2-chloro-4′-(6-oxo-5-azaspiro[3.4]octan-5-yl)-[1,1′-biphenyl]-3-yl)piperidine-2,6-dione]	98.2	> 90	2.78	≤ 100
O=C1CCC(c2cccc(-c3ccc(-c4cccn(CC(F)(F)F)c4=O)cc3)c2Cl)C(=O)N1 (stereo not shown) [Compound 458, 3-(2-chloro-4′-(2-oxo-1-(2,2,2-trifluoroethyl)-1,2-dihydropyridin-3-yl)-[1,1′-biphenyl]-3-yl)piperidine-2,6-dione]	98.6	> 90	4.79	≤ 100
O=C1CCC(c2cccc(-c3ccc(N4CCCCC4)cc3)c2Cl)C(=O)N1 (stereo not shown) [Compound 459, 3-(2-chloro-4′-(piperidin-1-yl)-[1,1′-biphenyl]-3-yl)piperidine-2,6-dione]	84.4	60 to 90	122	100 to 1000
O=C1CCC(c2cccc(-c3ccc(-c4cccc5ocnc45)cc3)c2Cl)C(=O)N1 (stereo not shown) [Compound 460, 3-(4′-(benzo[d]oxazol-4-yl)-2-chloro-[1,1′-biphenyl]-3-yl)piperidine-2,6-dione]	89.9	60 to 90	277	100 to 1000
O=C1CCC(c2cccc(-c3ccc(N4CCCCC4=O)c(F)c3)c2Cl)C(=O)N1 (stereo not shown) [Compound 461, 3-(2-chloro-3′-fluoro-4′-(2-oxopiperidin-1-yl)-[1,1′-biphenyl]-3-yl)piperidine-2,6-dione]	96.2	> 90	10.1	≤ 100
[2H]c1c([2H])c(-n2ccccc2=O)c([2H])c([2H])c1-c1cccc(C2CCC(=O)NC2=O)c1Cl (stereo not shown) [Compound 462, 3-(2-chloro-3-(2,3,5,6-tetradeuterio-4-(2-oxo-1-pyridyl)phenyl)phenyl)piperidine-2,6-dione]	95.5	> 90	14.8	≤ 100
O=C1CCC(c2cccc(-c3ccc(N4C(=O)CCCC4C(F)F)cc3)c2Cl)C(=O)N1 (stereo not shown) [Compound 463, 3-(2-chloro-4′-(2-(difluoromethyl)-6-oxopiperidin-1-yl)-[1,1′-biphenyl]-3-yl)piperidine-2,6-dione]	95.7	> 90	7.16	≤ 100
O=C1CCC(c2cccc(-c3ccc(N4CCC(F)(F)CC4=O)cc3)c2Cl)C(=O)N1 (stereo not shown) [Compound 464, 3-(2-chloro-4′-(4,4-difluoro-2-oxopiperidin-1-yl)-[1,1′-biphenyl]-3-yl)piperidine-2,6-dione]	94.8	> 90	9.46	≤ 100
O=C1CCC(c2cccc(-c3ccc(N4Cc5cccnc5C4=O)cc3)c2Cl)C(=O)N1 (stereo not shown) [Compound 465, 3-(2-chloro-4′-(7-oxo-5,7-dihydro-6H-pyrrolo[3,4-b]pyridin-6-yl)-[1,1′-biphenyl]-3-yl)piperidine-2,6-dione]	39.9	< 60	≥ 10000	> 1000
O=C1CCC(c2cccc(-c3ccc(N4Cc5ncccc5C4=O)cc3)c2Cl)C(=O)N1 (stereo not shown) [Compound 466, 3-(2-chloro-4′-(5-oxo-5,7-dihydro-6H-pyrrolo[3,4-b]pyridin-6-yl)-[1,1′-biphenyl]-3-yl)piperidine-2,6-dione]	35.2	< 60	≥ 10000	> 1000
O=C1CCC(c2cccc(-c3ccc(N4COCCC4=O)cc3)c2Cl)C(=O)N1 (stereo not shown) [Compound 467, 3-(2-chloro-4′-(4-oxo-1,3-oxazinan-3-yl)-[1,1′-biphenyl]-3-yl)piperidine-2,6-dione]	95	> 90	11.5	≤ 100
O=C1CCC(c2cccc(-c3ccc(N4C(=O)Cc5ccccc54)cc3)c2Cl)C(=O)N1 (stereo not shown) [Compound 468, 3-(2-chloro-4′-(2-oxoindolin-1-yl)-[1,1′-biphenyl]-3-yl)piperidine-2,6-dione]	96.2	> 90	24.8	≤ 100
O=C1CCC(c2cccc(-c3ccc(N4CCCCC4C(F)F)cc3)c2Cl)C(=O)N1 (stereo not shown) [Compound 469, 3-(2-chloro-4′-(2-(difluoromethyl)piperidin-1-yl)-[1,1′-biphenyl]-3-yl)piperidine-2,6-dione]	79.4	60 to 90	266	100 to 1000
O=C1CCC(c2cccc(-c3ccc(-n4ccccc4=O)c(F)c3)c2Cl)C(=O)N1 (stereo not shown) [Compound 470, 3-(2-chloro-3′-fluoro-4′-(2-oxopyridin-1(2H)-yl)-[1,1′-biphenyl]-3-yl)piperidine-2,6-dione]	97.1	> 90	9.19	≤ 100
O=C1CCC(c2cccc(-c3ccc(-n4cccnc4=O)cc3)c2Cl)C(=O)N1 (stereo not shown) [Compound 471, 3-(2-chloro-4′-(2-oxopyrimidin-1(2H)-yl)-[1,1′-biphenyl]-3-yl)piperidine-2,6-dione]	92.8	> 90	24.1	≤ 100
O=C1CCC(c2cccc(-c3ccc(Cc4ncco4)cc3)c2Cl)C(=O)N1 (stereo not shown) [Compound 472, 3-(2-chloro-4′-(oxazol-2-ylmethyl)-[1,1′-biphenyl]-3-yl)piperidine-2,6-dione]	96.7	> 90	8.25	≤ 100
Cc1nc(Cc2ccc(-c3cccc(C4CCC(=O)NC4=O)c3Cl)cc2)no1 (stereo not shown) [Compound 473, 3-(2-chloro-4′-((5-methyl-1,2,4-oxadiazol-3-yl)methyl)-[1,1′-biphenyl]-3-yl)piperidine-2,6-dione]	96.2	> 90	9.34	≤ 100
O=C1CCC(c2cccc(-c3cnc(-n4ccccc4=O)nc3)c2Cl)C(=O)N1 (stereo not shown) [Compound 474, 3-(2-chloro-3-(2-(2-oxopyridin-1(2H)-yl)pyrimidin-5-yl)phenyl)piperidine-2,6-dione]	35.3	< 60	≥ 10000	> 1000
CN(C(=O)c1ccn(C)n1)c1ccc(-c2cccc(C3CCC(=O)NC3=O)c2Cl)cc1 (stereo not shown) [Compound 475, N-(2′-chloro-3′-(2,6-dioxopiperidin-3-yl)-[1,1′-biphenyl]-4-yl)-N, 1-dimethyl-1H-pyrazole-3-carboxamide]	73.2	60 to 90	98.9	≤ 100
O=C1CCC(c2cccc(-c3ccc(N4CCCCC4C(F)(F)F)cc3)c2Cl)C(=O)N1 (stereo not shown) [Compound 476]	84	60 to 90	397	100 to 1000
O=C1CCC(c2cccc(-c3ccc(-n4ccccc4=O)nc3)c2Cl)C(=O)N1 (stereo not shown) [Compound 477, 3-(2-chloro-3-(2-oxo-2H-[1,2′-bipyridin]-5′-yl)phenyl)piperidine-2,6-dione]	88.7	60 to 90	65.6	≤ 100
O=C1CCC(c2cccc(-c3ccc(N4C(=O)CC5CC54)cc3)c2Cl)C(=O)N1 (stereo not shown) [Compound 478, 3-(2-chloro-4′-(3-oxo-2-azabicyclo[3.1.0]hexan-2-yl)-[1,1′-biphenyl]-3-yl)piperidine-2,6-dione]	70.5	60 to 90	291	100 to 1000
Cn1ccc(COc2ncc(-c3cccc(C4CCC(=O)NC4=O)c3Cl)cn2)n1 (stereo not shown) [Compound 479, 3-(2-chloro-3-(2-((1-methyl-1H-pyrazol-3-yl)methoxy)pyrimidin-5-yl)phenyl)piperidine-2,6-dione]	31	< 60	≥ 10000	> 1000
Cn1ccc(Cc2nn(C)c3cc(-c4cccc(C5CCC(=O)NC5=O)c4Cl)ccc23)n1 (stereo not shown) [Compound 480, 3-(2-chloro-3-(1-methyl-3-((1-methyl-1H-pyrazol-3-yl)methyl)-1H-indazol-6-yl)phenyl)piperidine-2,6-dione]	96.7	> 90	8.08	≤ 100
O=C1CCC(c2cccc(-c3ccc(N4C(=O)C5CC4C5)cc3)c2Cl)C(=O)N1 (stereo not shown) [Compound 481, 3-(2-chloro-4′-{3-oxo-2-azabicyclo[2.1.1]hexan-2-yl}-[1,1′-biphenyl]-3-yl)piperidine-2,6-dione]	46	< 60	≥ 10000	> 1000
